In PMC4057422, “Apoptotic Death of Prostate Cancer Cells by a Gonadotropin-Releasing Hormone-II Antagonist” (PLoS ONE, 2014):
Where two headings read alike, the source gives them in different places. Square brackets hold non-standard residues; d marks the D form. Ends that are not written are not given here. Peptide text beside a SMILES is read from it. dPhe(4-Cl) = N[C@H](Cc1ccc(Cl)cc1)C(=O)O; d2Nal = N[C@H](Cc1ccc2ccccc2c1)C(=O)O; dCit = NC(=O)NCCC[C@@H](N)C(=O)O; d3Pal = N[C@H](Cc1cccnc1)C(=O)O

Experiments:
PC3 xenograft tumor = details: cited from earlier work; for growth of tumor formed by implanted PC3 cells: previous studies, ref [27], [28]
Method: PC3 cells were implanted into the flanks of nude mice. After tumor formation, SN09-2 was injected into the mice at different concentrations for 25 consecutive days. […] In the group treated with 0.1 mg SN09-2, tumor volumes were reduced by 27%, compared with the vehicle-treated group (Fig. 7A, B). […] The di ... || Both GnRH-I agonists and antagonists are able to inhibit the growth of cancer cells in sex hormone-regulated tissues including ovarian cancer and prostate cancer, by directly stimulating cell death pathways as well as by decreasing gonadotropin and sex hormone levels, [32], [33]. Because of the sequence similarity between GnRH-I and GnRH-II, GnRH-II and its antagonists are considered to exert similar effects on these types of cancer, although its receptor has not been identified in human and its action mechanisms have not been well elucidated. In some reports, GnRH-II has been shown ...

cytochrome c (PC3 cells) = details: ref [28]; cited from earlier work
Text: (§1) Mitochondrial proteins play pivotal roles in organelle-specific functions such as energy conversion, calcium hemeostasis, ROS generation, and electron transport, [40]. The disturbance of such mitochondrial functions is a critical step towards cell death through the activation of either apoptotic or autophagic pathways, [42]. GRP75 a mitochondrial chaperon is an essential protein for mitochondria biogenesis by refolding and sorting mitochondrial proteins. Elevation of GRP75 is easily observed in various cancer cells, while knockdown of the protein induces mitochondrial dysfunc ...

prostate cancer cells [1] = details: ref [28]; cited from earlier work
Text: as §1

[2] = target: T1, green monkey GnRHR-II (gmGnRHR-II) (Chlorocebus aethiops, UniProt Q95MH6); assay: Reporter gene assay (SRE-luc), antagonism of GnRH-II at gmGnRHR-II; format: cell-based
T1 construct: expressed in transfected cells; host or cells: CV-1 cells
T1 sequence (Q95MH6 1-379): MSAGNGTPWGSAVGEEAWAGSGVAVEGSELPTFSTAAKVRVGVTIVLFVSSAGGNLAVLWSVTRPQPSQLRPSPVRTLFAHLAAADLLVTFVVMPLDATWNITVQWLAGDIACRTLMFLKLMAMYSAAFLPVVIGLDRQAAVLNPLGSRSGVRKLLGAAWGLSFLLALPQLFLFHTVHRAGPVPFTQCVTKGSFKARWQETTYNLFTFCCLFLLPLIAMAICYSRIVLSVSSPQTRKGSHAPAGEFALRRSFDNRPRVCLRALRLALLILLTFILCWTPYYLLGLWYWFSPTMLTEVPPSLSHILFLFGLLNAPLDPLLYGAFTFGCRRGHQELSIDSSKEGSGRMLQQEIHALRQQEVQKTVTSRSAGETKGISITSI
Method: (§2) CV-1 Cells were culture overnight in 24-well plates and subsequently transfected with liposome complex containing pGL3/SRE-luc plasmids with bull frog GnRHR-II (bfGnRHR-II) or green monkey GnRHR-II (gmGnRHR-II). Another 48 h later, cells treated with GnRH-II (1 nM for bfGnRHR-II, 10 nM gmGnRHR-II) and different concentration of SN09-2 or Trp-1 for 6 h were washed with PBS and solublized with lysis buffer. Luciferase activity of cell extracts was determined using the standard luciferase assay system from BioTek Instrument, Inc. (Winooski, VT). To determine transfection efficiency, luciferase activities were normalized to the β-gal activity. All data are calculated from at least three independent experiments normalized to untreated groups.

caspase-3 (PC3 cells) = details: ref [28], cited from earlier work
Text: as §1, with “Next, we examined caspase-3 activation by SN09-2. […] We also investigated caspase-3 cleavage in LNCaP and DU145 cells. […] Immunocytochemistry for actively cleaved caspase- ... || Mitochondrial” for “Mitochondrial”

PC3 cells [3] = details: FITC-conjugated form, prostate cancer cells; ref [28]; cited from earlier work
Text: In previous reports, we and other groups observed that radiolabeled GnRH-II bound to prostate cancer cells through interaction with an approximately 80-kDa protein whose identity was designated as glucose-regulated protein 75 (GRP75) based on liquid chromatography-electrospray ionization-tandem mass spectrometry, [28], [29]. […] Since GRP75 is found predominantly in mitochondria, the final destination of SN09-2 may not be the cell surface. To explore the subcellular location of the antag ...

[4] = target: bull frog GnRHR-II (bfGnRHR-II) (Aquarana catesbeiana, UniProt Q9DE60); assay: Reporter gene assay (SRE-luc), antagonism of GnRH-II at bfGnRHR-II; format: cell-based; details: CV-1 cells, GnRH-II 1 nM, antagonist 6 h, luciferase normalized to β-gal, at least three independent experiments
Method: as §2

PC3 cells [5] = format: cell-based, human; details: for growth inhibition of PC3 cells: 10 µM
Method: (§3) Cells were seeded in 12-well plates in triplicate (1×10^4 cells/well). After 24 h, cells were treated with the indicated concentrations of GnRH-II antagonists solubilized in 0.1% DMSO every 24 h for the indicated number of days. Then, cells were washed with phosphate-buffered saline (PBS), dissociated with trypsin/EDTA, and re-suspended in 500 µl complete growth media. Trypan blue (0.4%) dye-excluding cells were counted under an inverted microscope (Olympus, Tokyo, Japan).

ovarian cancer cells = details: cited from earlier work
Text: GnRH-II is likely to function on prostate cancer cells by interacting with unknown proteins, based on our previous observation that radiolabeled GnRH-II was able to bind various human prostate cancer cells. […] Because of the sequence similarity between GnRH-I and GnRH-II, GnRH-II and its antagonists are considered to exert similar effects on these types of cancer, although its receptor has not been identified in human and its action mechanisms have not been well elucidated. In some reports, GnRH-II has been shown ...

human T cells = details: ref [20]; cited from earlier work
Text: In most vertebrates, the other type of GnRH, called GnRH-II, is identified, which is structurally conserved in evolution from fish to mammals [12]–[14]. GnRH-II is expressed not only in the brain but also in peripheral reproductive and immune tissues. This wide expression pattern may confer a variety of physiological functions on the peptide. Similar to GnRH-I, GnRH-II is able to regulate reproduction in females by stimulating the secretion of LH and FSH [16], [17].

prostate cancer cells [6] = details: cited from earlier work; for displacement of radiolabeled GnRH-II binding: various human prostate cancer cells, ref [27]
Text: GnRH-II is likely to function on prostate cancer cells by interacting with unknown proteins, based on our previous observation that radiolabeled GnRH-II was able to bind various human prostate cancer cells.

[7] = Dissolution in solvents / at the injection site; format: physicochemical
DU145 cells = assay: Cell viability assay, DU145; format: cell-based, human; details: 10 µM, 5% serum, 3 days
Method: as §3

[8] = Tolerability in nude mice (histology, blood chemistry, injection site); format: in vivo, male athymic nude mice (BALB/c-nu)
Method: Six-week-old male athymic nude mice (BALB/c-nu) were obtained from Harlan (Houston, TX). Mice were housed under specific pathogen-free conditions in an individually ventilated caging system. All experimental procedures were performed after receiving approval from the Institutional Animal Care and Use Committee of Clinical Research Institute in Seoul National University Hospital. PC3 cells (6×10^6) were injected into the right flank of the mice. Ten days after cell injection, tumors with volumes of around 20–25 mm^3 developed in most mice; tumor volumes were measured every day. Tumor volumes were determined by two perpendicular dimensions [length (L) and width (W)] and the height (H), measured using Vernier calipers (the formula is V = (π/6) × (W×L×H). From this time, SN09-2 (acetic acid form) dissolved in 5% N,N-dimethylacetamide (DMA), 10% glycerol, and 85% distilled water which is biocompatible solvent were subcutaneously injected into the mice for 25 consecutive days. The tumor size in each mouse was measured every day. Six to seven mice were used for each experimental group.

Chain of bull frog GnRHR-II (bfGnRHR-II) (Q9DE60 entry or part of it): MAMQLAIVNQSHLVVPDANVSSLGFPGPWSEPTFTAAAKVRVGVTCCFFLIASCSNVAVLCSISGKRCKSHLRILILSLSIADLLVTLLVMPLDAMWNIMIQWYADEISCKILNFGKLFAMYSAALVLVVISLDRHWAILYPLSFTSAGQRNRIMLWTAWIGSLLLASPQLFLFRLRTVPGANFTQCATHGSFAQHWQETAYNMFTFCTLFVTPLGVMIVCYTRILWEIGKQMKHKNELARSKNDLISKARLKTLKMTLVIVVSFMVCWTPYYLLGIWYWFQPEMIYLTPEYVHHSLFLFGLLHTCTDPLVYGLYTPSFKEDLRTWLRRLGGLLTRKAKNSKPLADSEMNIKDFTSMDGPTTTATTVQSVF

## Ac-[d2Nal][dPhe(4-Cl)][d3Pal]SY[dCit]WYP[dA]-NH2 [Trp-1, GnRH-II antagonist of the authors' earlier report]
PC3 xenograft tumor; 0.1 mg, PC3 xenograft, quoted comparison, ref [28]
  inhibitory activity on tumor volume: 60%
PC3 xenograft tumor
  growth of tumor formed by implanted PC3 cells: inhibited growth of the tumor
Cytochrome c (PC3 cells)
  cytochrome c release: does not induce
Prostate cancer cells [1]
  autophagic cell death: induces autophagic cell death
[2]; CV-1 cells, SRE-luc reporter, GnRH-II 10 nM, antagonist 6 h, luciferase normalized to β-gal, at least three independent experiments
  antagonism of GnRH-II at gmGnRHR-II: partial
caspase-3 (PC3 cells); previous results
  activation of the apoptotic machinery: could not trigger the activation of the apoptotic machinery
caspase-3 (PC3 cells)
  caspase-3 activation: does not induce
PC3 cells [3]
  mitochondrial accumulation in presence of unlabeled GnRH-II: attenuated by unlabeled GnRH-II
[4]
  IC50: 250 nM
PC3 cells [5]; different concentrations, 5% serum, 3 days, versus DMSO control
  PC3 cell growth inhibition, dose response: significantly attenuated cell growth in a dose-dependent manner

## FITC-conjugated GnRH-II: FITC-conjugated GnRH-II (QHWSHGWYPG; ends and bridges not checked; also: FITC-conjugated, site not given here; UniProt O43555 24-33, looked up)
PC3 cells [3]
  mitochondrial accumulation in presence of unlabeled GnRH-II: attenuated by unlabeled GnRH-II

## GnRH-II: the other type of GnRH, structurally conserved in evolution from fish to mammals (QHWSHGWYPG; ends and bridges not checked; UniProt O43555 24-33, looked up)
Ovarian cancer cells; ref [26], [27]
  inhibition of proliferation of ovarian cancer cells: inhibit the proliferation
Ovarian cancer cells; ref [33]
  anti-proliferative effect in ovarian cancer, versus GnRH-I: stronger anti-proliferative effect than that of GnRH-I
Human T cells
  laminin receptor expression: stimulates laminin receptor expression
Prostate cancer cells [6]; ref [26], [27]
  inhibition of proliferation of prostate cancer cells: inhibit the proliferation
Prostate cancer cells [6]
  displacement of radiolabeled GnRH-II binding: displaced by unlabeled GnRH-II

## cetrorelix
PC3 xenograft tumor
  growth of tumor formed by implanted PC3 cells: very weak effect on tumor growth
Human T cells
  block of GnRH-II-induced laminin receptor expression: not blocked

## CC(=O)N[C@H](Cc1ccc2ccccc2c1)C(=O)N[C@H](Cc1ccc(Cl)cc1)C(=O)N[C@H](Cc1cccnc1)C(=O)N[C@@H](CO)C(=O)N[C@@H](Cc1ccccc1)C(=O)N[C@H](CCCCN)C(=O)N[C@@H](Cc1c[nH]c2ccccc12)C(=O)N[C@@H](Cc1ccc(O)cc1)C(=O)N[C@@H](CCCNC(=N)N)C(=O)N[C@H](C)C(N)=O [SN09-2, Ac-D-Nal(2)-D-phe(4Cl)-D-Pal(3)-Ser-Phe-D-Lys-Trp-Tyr-Arg-D-Ala-NH2] (Ac-[d2Nal][dPhe(4-Cl)][d3Pal]SF[dK]WYR[dA]-NH2)
[7]; 5% N,N′-dimethylacetamide (DMA) formulation
  solubility in 5% DMA: appeared well dissolved
[7]; DMSO, solvent for in vitro treatment
  solubility in DMSO: dissolved well in DMSO
[2]
  IC50: 1900 nM
DU145 cells
  growth inhibition of DU145 cells: ≈ 50%
[8]; after 25 days subcutaneous treatment
  liver and kidney histopathology: no histo-pathological abnormalities
[8]; after 25 days subcutaneous treatment, data not shown
  serum alkaline phosphatase, aspartate aminotransferase, alanine aminotransferase, urea nitrogen, creatinine, total bilirubin: did not differ between vehicle and SN09-2-treated mice
[8]; mice, several days after subcutaneous injection
  skin irritation / densely populated cells at the injection site: no skin irritation or densely populated cells were detected
[8]; mice, subcutaneous treatment
  edema-like phenotype: not observed
[8]; xenograft model
  adverse effects to the animal: without any apparent adverse effects
PC3 cells [5]; 5% serum, 4 days
  growth inhibition of PC3 cells: 91%
PC3 cells [5]; 10% serum, 4 days
  growth inhibition of PC3 cells: 88%
PC3 cells [5]; higher serum concentrations, 4 days
  growth inhibition of PC3 cells: more than 85%
PC3 cells [5]; low serum concentrations (less than 2% FBS), within 4 days
  growth inhibition of PC3 cells: more than 95%

## GnRH-I: gonadotropin-releasing hormone-I synthesized in the hypothalamus
Prostate cancer cells [6]
  displacement of radiolabeled GnRH-II binding: not by GnRH-I
